US20170209443A1, “ANTI-INFLAMMATORY EFFECT OF ORALLY ACTIVE FYN KINASE INHIBITOR SARA-CATINIB (AZD 0530) AGAINST PARKINSON'S DISEASE AND OTHER RELATED NEURODEGENARATIVE DISEASES” (Iowa State University Research Foundation, Inc., priority 2016, published 2017)
Entries after “also recorded” stand apart in the source; their conditions may differ. Residues, ends and D or L forms follow the SMILES beside them. *: point of attachment. Cbz = O=C(OCc1ccccc1)*; CH2F = FC*

Assays:
microglial cell line [1] = assay: Luminex cytokine assay, aggregated α-synuclein induced pro-inflammatory cytokines; type: cell-based; conditions: 1-30 μM pretreatment, aggregated α-synuclein (1 μM) 24 hours; FIG. 26C
Method: Primary microglia obtained from wild-type, PKCδ^−/− and Fyn^−/− mice were seeded in poly-D-lysine-coated 96-well plates at 1×10^5 cells/well. The cells were treated for 24 h with 100-200 ng/mL LPS or 10 ng/mL TNFα. After treatment, 50 μL of supernatant from each well was collected and frozen at −80° C. The levels of cytokines and chemokines in the supernatants were determined using the Luminex bead-based immunoassay platform (Vignali 2000) and pre-validated multiplex kits (Milliplex mouse cytokine panel Millipore) according to the manufacturer's instructions.
(§1) In this study microglial cell line were pretreated with 1-30 μM Saracatinib, a Fyn kinase inhibitor followed by aggregated α-synuclein (1 μM) for 24 hours in a 96 well plate.

[2] = test system: immortalized WT microglial cells; assay: aggregated αSyn-induced IL-1β secretion from unprimed immortalized microglial cells; type: cell-based; conditions: pre-treatment before aggregated αSyn, FIG. 19B
Source text: The current model of the NLRP3 inflammasome postulates a two-step mechanism. A TLR or TNFR1 agonist, acting as the initial signal, induces the expression of pro-[…] and NLRP3 proteins. Subsequently, a second signal causes lysosomal rupture, mitochondrial ROS generation and/or K^+ efflux that acts as a danger signal resulting in the assembly and activation of the inflammasome complex and the processing and secretion of IL-1β into the cell supernatant. Since we observed that αSyn can signal the inflammasome and can also amplify LPS-mediated activation of NLRP3 and pro-IL-1β at the mRNA and protein level, we wondered if it could activate the NLRP3 inflammasome independent of an LPS-mediated priming step. Unprimed and immortalized WT and Capsase-1^−/− microglial cells were treated with aggregated αSyn for 4 h. As assessed via immunoblot, aggregated αSyn induced pro-IL-1β and NLRP3 to equivalent levels in both cell types (FIG. 19A). It also brought about the secretion of IL-1β in WT, and to a strikingly lower extent in the Caspase-1 deficient microglial cells. […] We next utilized primary BMDMs from WT, NLRP3^−/−, Caspase-1^−/− and Caspase-11^−/− mice to test the ability of αSyn to activate the NLRP3 inflammasome in them. As expected, we saw no genotypic difference in the ability of macrophages to induce pro-IL-1β and import αSyn (FIG. 19C). […]

microglial cell line [3] = assay: cell viability assay in microglial cell line; type: cell-based; conditions: FIG. 26A
Method: as §1

microglial cell line [4] = assay: Griess assay, aggregated α-synuclein induced nitrite production; type: cell-based; conditions: FIG. 26B
Method: Nitric oxide production by primary microglia was measured indirectly by quantification of nitrite in the supernatant using the Griess reagent (Sigma Aldrich). Microglia were plated in poly-D-lysine-coated 96-well plates at 1×10^5 cells/well. Cells were treated with 100 ng/mL of LPS for 24 h and after 100 μL of supernatant was collected from each well, an equal volume of the Griess reagent was added. The samples were incubated on a plate shaker at room temperature for 15 min until a stable color was obtained. The absorbance at 540 nm was measured using a Synergy 2 multi-mode microplate reader (BioTek Instruments) and the nitrite concentration was determined from a sodium nitrite standard curve.
as §1

MPTP-treated mice = assay: microglia activation (IBA-1) in substantia nigra, acute MPTP mouse model; type: in vivo, C57 black mice; conditions: FIG. 27; for expression of IBA-1 in SN tissue (Western blot): oral 5 mg/kg once on days 1 and 2, MPTP 18 mg/kg x 4 i.p., 24 hrs after last MPTP
Method: Thus, we evaluated whether the Sarcanatib attenuates microglial activation in the substantia nigra. C57 black mice were orally administered saracatinib (5 mg/kg, once) on days 1 and 2. On day 2, after sarcanatib administration, mice were subject to acute MPTP regimen. Mice were administered 18 mg/kg MPTP (4 i.p. injections at 2 hour intervals) and control animals received saline. Mice were sacrificed 24 hrs post last MPTP injection. Brain harvested and nigral tissue lysates were subject to Western blot analysis.

[5] = test system: LPS-primed primary murine microglia; assay: αSyn-induced IL-1β and TNFα production in LPS-primed primary microglia; type: cell-based; conditions: pre-treatment post priming, before αSyn; FIG. 14A
Method: Misfolded proteins can activate the NLRP3 inflammasomes in microglia (Hafner-Bratkovic et al., 2012; Halle et al., 2008). After obtaining and purifying human αSyn (FIG. 15), we determined that endotoxin contamination was minimal, and that an equivalent concentration of LPS could not activate pro-inflammatory signaling in microglia (data not shown). Aggregation of αSyn was performed as previously described (Zhang et al., 2005). LPS-primed primary murine microglia were treated with α-synuclein for 24 h, with or without the pre-treatment of the pan-Caspase inhibitor ZVAD-FMK or the Caspase-1 specific inhibitor ZYVAD-FMK. […] Next, we treated LPS-primed bone marrow-derived macrophages (BMDMs) from WT, NLRP3^−/−, ASC^−/−, Caspase-1^−/− and Caspase-11^−/− mice with aggregated human α-synuclein for 24 h (FIG. 14B). […] By immunoblotting the levels of pro-IL-1β produced upon LPS treatment (FIG. 14C, 14D), we confirmed that none of these proteins played a role in the priming of the NLRP3 inflammasome. Next, we assessed the inflammasome activating ability of aggregated human αSyn in primary murine microglia by staining for ASC in LPS and LPS+αSyn treated microglia. […] We also utilized the ASC-CFP reporter cell line, which overexpresses ASC tagged with cyan fluorescent protein (CFP). NLRP3 inflammasome activation causes ASC to coalesce into a single speck within each cell. We counted the number of ASC-positive specks to measure inflammasome activation. ASC-CFP cells were primed with LPS and treated with aggregated αSyn for 2 h. Endogenous CFP fluorescence was assessed. In the αSyn treated group, specks of ASC were observed, indicating inflammasome activation (FIG. 14G). […] In summary, aggregated αSyn acts as an efficient danger signal to activate the NLRP3 inflammasome. Data from the A53T model and from PD patient lysates provide in vivo relevance as well. We also observed increased Fyn expression within the microglia in PD tissues, when compared to age-matched control tissues (FIG. 16).

| Structure (SMILES) | IL-1β production induced by aggregated α-synuclein (microglial cell line [1]) | IL-12 production induced by aggregated α-synuclein (microglial cell line [1]) | TNF-α production induced by aggregated α-synuclein (microglial cell line [1]) | αSyn-induced secretion of IL-1β [2] | cytotoxic cell death (microglial cell line [3]; 1-30 μM pretreatment, then aggregated α-synuclein (1 μM) for 24 hours) | cell death (microglial cell line [3]; low dose) | nitrite production induced by aggregated α-synuclein (microglial cell line [4]; 10 μM dose) | aggregated α-synuclein induced nitrite production (microglial cell line [4]; 1-30 μM pretreatment, aggregated α-synuclein (1 μM) 24 hours) | activation of microglia in the substantia nigra (MPTP-treated mice; MPTP-treated mice) | expression of IBA-1 in SN tissue (Western blot) (MPTP-treated mice) | expression of IBA-1 in SN tissue (Western blot) (MPTP-treated mice; listed as saracatinib) | secretion/production of TNFα [5] | αSyn-induced IL-1β cleavage and secretion [5] |
| --- | --- | --- | --- | --- | --- | --- | --- | --- | --- | --- | --- | --- | --- |
| CN1CCN(CCOc2cc(OC3CCOCC3)c3c(Nc4c(Cl)ccc5c4OCO5)ncnc3c2)CC1 [Saracatinib] | significantly attenuated; also recorded: attenuates the secretion | significantly attenuated; also recorded: attenuates the secretion | significantly attenuated; also recorded: attenuates the secretion | inhibited by pre-treatment with the Fyn inhibitor Saracatinib in a dose-dependent manner; also recorded: inhibited with pretreatment of the Fyn inhibitor Saracatinib in a dose dependent manner | did not induce cytotoxic cell death | not associated with cell death | attenuates the nitrite production | significantly blocked aggregated α-synuclein induced nitrite production in a dose-dependent manner | blocked activation of microglia | not in Saracatinib and MPTP-treated animals | attenuated the expression of IBA-1 | – | – |
| COC(=O)C[C@H](NC(=O)[C@H](C)NC(=O)[C@@H](NC(=O)OCc1ccccc1)C(C)C)C(=O)CF [ZVAD-FMK] (Cbz-Val-Ala-Asp(OMe)-CH2F) | – | – | – | – | – | – | – | – | – | – | – | only marginally reduced | reduced in the group pre-treated with the Caspase inhibitors |
| COC(=O)C[C@H](NC(=O)[C@H](C)NC(=O)[C@@H](NC(=O)[C@H](Cc1ccc(O)cc1)NC(=O)OCc1ccccc1)C(C)C)C(=O)CF [ZYVAD-FMK] | – | – | – | – | – | – | – | – | – | – | – | only marginally reduced | reduced in the group pre-treated with the Caspase inhibitors |
